Assays:
A549 = test: Cytotoxicity test to cancer cell lines (SRB method), A549; settings: Homo sapiens, A549, 48 h, read-out: Cytotoxicity ED50 A549
Experimental: (§1) Cytotoxicity to A549 (Korea Research Institute of Chemical Technology), SK-OV-3 (Korea Research Institute of Chemical Technology), SK-MEL-2 (Korea Research Institute of Chemical Technology), HCT-15 (Korea Research Institute of Chemical Technology) and MCF7 (Korean Cell Line Bank, Seoul National University School of medicine) cells was measured by Sulforhodamin-B (SRB) method (1989, National Cancer Institute (NCI)) which was developed for the measurement of in vitro anticancer activity of a drug. Cells were separated using 0.25% trypsin-EDTA solution, leading to the preparation of a cell suspension by 5×10^318 2×10^4 cells/well. Then, the suspension was distributed into a 96 well plate by 100 μl/well, which was cultured in a 37° C., 5% CO2 incubator for 24 hours. Compounds prepared in examples of the present invention were used as a sample. Precisely, the compound was dissolved in dimethylsulfoxide and diluted with RPMI 1640 medium before being used as a sample. The final concentration of the sample used varied ranging 1 μM˜0.00001 μM. The medium was removed from the 96 well plate and then diluted sample solution was added by 100 μl/well, followed by further culture in a 37° C., 5% CO2 incubator for 48 hours. Tz (time zero) plate was collected from the point of adding the sample. Upon completing the culture, the medium was removed from each well along with Tz plate, then 10% trichloroacetic acid (TCA) was added by 100 μl/well. The plate was left at 4° C. for 1 hour to let cells be fixed on the floor of the plate. After cells were fixed completely, the plate was washed with water 5-6 times to remove the remaining trichloroacetic acid solution completely and moisture was completely dried at room temperature. 0.4% Sulforhodamine-B was dissolved in 1% acetic acid solution to prepare a staining solution. Cells were stained for 30 minutes with a dye added by 100 μl to each well of the completely dried plate. Then, the plate was washed with 1% acetic acid solution 5-6 times to remove sulforhodamine-B remained uncombined with cells. Then, the plate was dried at room temperature. 10 mM Tris solution was added by 100 μ/well thereto to dissolve the dye, and optical density (OD) was measured at 520 nm with a micro plate reader.
(§2) ED50 (concentration that inhibits cancer cell growth 50%, 5.0% effective dose, nM/ml) of the sample to cancer cell was calculated as follows. OD value at the point of beginning the culture with the sample was determined as Tz (time zero) value. OD value of a well to be cultured without the sample was determined as a control value (C). OD value of a well pretreated with the sample was determined as experimental value (T). After calculating Tz, C and T, cytotoxicity of the sample was measured by the below <Mathematical Formula 1>. T≦Tz, (T−Tz)/(C−Tz)×100 T>Tz, (T−Tz)/Tz×10,0 <Mathematical Formula 1>
(§3) ED50, the concentration that can inhibit cancer cell growth by 50%, was calculated by using a regression analysis of lotus program based on the degree of cytotoxicity obtained by the <Mathematical Formula 1>.

SK-MEL-2 = test: Cytotoxicity test to cancer cell lines (SRB method), SK-MEL-2; format: cell-based; settings: Homo sapiens, SK-MEL-2, 48 h, read-out: Cytotoxicity ED50 SK-MEL-2
SK-OV-3 = test: Cytotoxicity test to cancer cell lines (SRB method), SK-OV-3; format: cell-based; settings: Homo sapiens, SK-OV-3, 48 h, read-out: Cytotoxicity ED50 SK-OV-3
HCT-15 = test: Cytotoxicity test to cancer cell lines (SRB method), HCT-15; settings: Homo sapiens, HCT-15, 48 h, read-out: Cytotoxicity ED50 HCT15
Experimental: as §1, §2, §3

MCF7 = test: Cytotoxicity test to cancer cell lines (SRB method), MCF7; settings: read-out: Cytotoxicity ED50 MCF-7, MCF-7, 48 hours
Experimental: as §1, §2, §3

| Structure (SMILES) | EC50 (A549) [nM] | EC50 (SK-MEL-2) [nM] | EC50 (SK-OV-3) [nM] | EC50 (HCT-15) [nM] | EC50 (MCF7) [nM] |
| --- | --- | --- | --- | --- | --- |
| COc1cc2c(c(OC)c1OC)-c1ccc(SC)c(=O)cc1[C@@H](NC(=O)c1ccc(CO[N+](=O)[O-])nc1)CC2 [Example 1, 6-nitrooxymethyl-N-[(7S)-1,2,3-trimethoxy-10-methylsulfanyl-9-oxo-5,6,7,9-tetrahydro-benzo[a]heptalen-7-yl]-nicotineamide] | 1.8 | 0.4 | 1 | 0.6 |  |
| COc1cc2c(c(OC)c1OC)-c1ccc(SC)c(=O)cc1[C@@H](NC(=O)c1ccc(CO[N+](=O)[O-])o1)CC2 [Example 2, 5-nitrooxymethyl-furan-2-carboxylic acid-[(7S)-1,2,3-trimethoxy-10-methylsulfanyl-9-oxo-5,6,7,9-tetrahydro-benzo[a]heptalen-7-yl]-amide] | 15.8 | 5.4 | 9.3 | 2.3 | 2.9 |
| COc1c(OC(C)C)cc2c(c1OC)-c1ccc(SC)c(=O)cc1[C@@H](NC(=O)c1cccc(CO[N+](=O)[O-])c1)CC2 [Example 3, N-[(7S)-3-isopropoxy-1,2-dimethoxy-10-methylsulfanyl-9-oxo-5,6,7,9-tetrahydro-benzo[a]heptalen-7-yl]-3-nitrooxymethyl-benzamide] | 2.4 | 1 | 4 | 4.8 | 2.3 |
| CCOc1cc2c(c(OC)c1OC)-c1ccc(SC)c(=O)cc1[C@@H](NC(=O)c1cccc(CO[N+](=O)[O-])c1)CC2 [Example 4, N-[(7S)-3-ethoxy-1,2-dimethoxy-10-methylsulfanyl-9-oxo-5,6,7,9-tetrahydro-benzo[a]heptalen-7-yl]-3-nitrooxymethyl-benzamide] | 0.01 | 0.01 | 0.01 | 0.03 | 0.01 |
| COc1cc2c(c(OC)c1OC)-c1ccc(SC)c(=O)cc1[C@@H](NC(=O)c1cccc(CO[N+](=O)[O-])n1)CC2 [Example 5, 6-nitrooxymethyl-pyridine-2-carboxylic acid-[(7S)-1,2,3-trimethoxy-10-methylsulfanyl-9-oxo-5,6,7,9-tetrahydro-benzo[a]heptalen-7-yl]-amide] | 1 | 3.1 | 1 | 4.4 |  |
| COc1cc2c(c(OC)c1OC)-c1ccc(SC)c(=O)cc1[C@@H](NC(=O)c1ccc(CO[N+](=O)[O-])s1)CC2 [Example 6, 5-nitrooxymethyl-thiophene-2-carboxylic acid-[(7S)-1,2,3-trimethoxy-10-methylsulfanyl-9-oxo-5,6,7,9-tetrahydro-benzo[a]heptalen-7-yl]-amide] | 0.7 | 0.08 | 0.37 | 0.27 | 0.16 |
| COc1c(OC2CCCC2)cc2c(c1OC)-c1ccc(SC)c(=O)cc1[C@@H](NC(=O)c1cccc(CO[N+](=O)[O-])c1)CC2 [Example 7, N-[(7S)-3-cyclopentyloxy-1,2-dimethoxy-10-methylsulfanyl-9-oxo-5,6,7,9-tetrahydro-benzo[a]heptalen-7-yl]-3-nitrooxymethyl-benzamide] | > 50 | > 50 | > 50 | > 50 | > 50 |
| COc1c(OC(C)C)cc2c(c1OC)-c1ccc(SC)c(=O)cc1[C@@H](NC(=O)c1cccc(CO[N+](=O)[O-])c1F)CC2 [Example 9, 2-fluoro-N-[(7S)-3-isopropoxy-1,2-dimethoxy-10-methylsulfanyl-9-oxo-5,6,7,9-tetrahydro-benzo[a]heptalen-7-yl]-3-nitrooxymethyl-benzamide] | 0.49 | 0.22 | 0.34 | 0.64 | 0.13 |
| COc1cc2c(c(OC)c1OC)-c1ccc(SC)c(=O)cc1[C@@H](NC(=O)c1ccc(F)c(CO[N+](=O)[O-])c1)CC2 [Example 16, 4-fluoro-3-nitrooxymethyl-N-[(7S)-1,2,3-trimethoxy-10-methylsulfanyl-9-oxo-5,6,7,9-tetrahydro-benzo[a]heptalen-7-yl]-benzamide] | 1.6 | 1 | 1 | 1 |  |
| COc1cc2c(c(OC)c1OC)-c1ccc(SC)c(=O)cc1[C@@H](NC(=O)c1cc(O)cc(CO[N+](=O)[O-])c1)CC2 [Example 18, 3-hydroxy-5-nitrooxymethyl-N-[(7S)-1,2,3-trimethoxy-10-methylsulfanyl-9-oxo-5,6,7,9-tetrahydro-benzo[a]heptalen-7-yl]-benzamide] | 8.1 | 1 | 3.8 | 5.3 |  |
| COc1cc2c(c(OC)c1OC)-c1ccc(SC)c(=O)cc1[C@@H](NC(=O)c1ccc(COC(=O)c3cccc(O[N+](=O)[O-])c3)nc1)CC2 [Example 25, 3-nitrooxy-benzoic acid-5-[(7S)-1,2,3-trimethoxy-10-methylsulfanyl-9-oxo-5,6,7,9-tetrahydro-benzo[a]heptalen-7-yl-carbamoyl]-pyridine-2-yl-methylester] | 8.8 | 14 | 5.4 | 15 |  |
| COc1cc2c(c(OC)c1OC)-c1ccc(SC)c(=O)cc1[C@@H](NC(=O)c1ccc(COC(=O)CCCO[N+](=O)[O-])nc1)CC2 [Example 26, 4-nitrooxybutyric acid-5-[(7S)-1,2,3-trimethoxy-10-methylsulfanyl-9-oxo-5,6,7,9-tetrahydro-benzo[a]heptalen-7-yl-carbamoyl]-pyridine-2-yl-methylester] | 21 | 47 | > 50 | > 50 |  |
| COc1cc2c(c(OC)c1OC)-c1ccc(SC)c(=O)cc1[C@@H](NC(=O)c1cccc(COC(=O)c3cccc(CO[N+](=O)[O-])c3)n1)CC2 [Example 27, 3-nitrooxymethyl-benzoicacid-6-[(7S) -1,2,3-trimethoxy-10-methylsulfanyl-9-oxo-5,6,7,9-tetrahydro-benzo[a]heptalen-7-yl-carbamoyl]-pyridine-2-yl-methylester] | 5 | 7 | 16 | 2 |  |
| COc1cc2c(c(OC)c1OC)-c1ccc(SC)c(=O)cc1[C@@H](NC(=O)c1cccc(COC(=O)CCCO[N+](=O)[O-])n1)CC2 [Example 28, 4-nitrooxybutyric acid-6-[(7S)-1,2,3-trimethoxy-10-methylsulfanyl-9-oxo-5,6,7,9-tetrahydro-benzo[a]heptalen-7-yl-carbamoyl]-pyridine-2-yl-methylester] | 6 | 4 | 15 | 3 |  |
| COc1cc2c(c(OC)c1OC)-c1ccc(SC)c(=O)cc1[C@@H](NC(=O)c1ccccc1OC(=O)c1cccc(CO[N+](=O)[O-])c1)CC2 [Example 29, 3-nitrooxymethyl-benzoic acid-2-[(7S)-1,2,3-trimethoxy-10-methylsulfanyl-9-oxo-5,6,7,9-tetrahydro-benzo[a]heptalen-7-yl-carbamoyl]-phenylester] | 1.1 | 0.9 | 3 | 0.8 |  |
| COc1cc2c(c(OC)c1OC)-c1ccc(SC)c(=O)cc1[C@@H](NC(=O)c1ccccc1OC(=O)CCCO[N+](=O)[O-])CC2 [Example 30, 4-nitrooxybutyric acid-2-[(7S)-1,2,3-trimethoxy-10-methylsulfanyl-9-oxo-5,6,7,9-tetrahydro-benzo[a]heptalen-7-yl-carbamoyl]-phenylester] | 3.6 | 3.6 | 8.2 | 5.2 |  |
| COc1cc2c(c(OC)c1OC)-c1ccc(SC)c(=O)cc1[C@@H](NC(=O)c1cccc(OC(=O)c3cccc(CO[N+](=O)[O-])c3)c1)CC2 [Example 31, 3-nitrooxymethyl-benzoic acid-3-[(7S)-1,2,3-trimethoxy-10-methylsulfanyl-9-oxo-5,6,7,9-tetrahydro-benzo[a]heptalen-7-yl-carbamoyl]-phenylester] | 1.1 | 0.9 | 3 | 0.8 |  |
| COc1cc2c(c(OC)c1OC)-c1ccc(SC)c(=O)cc1[C@@H](NC(=O)c1cccc(OC(=O)CCCO[N+](=O)[O-])c1)CC2 [Example 32, 4-nitrooxybutyric acid-3-[(7S)-1,2,3-trimethoxy-10-methylsulfanyl-9-oxo-5,6,7,9-tetrahydro-benzo[a]heptalen-7-yl-carbamoyl]-phenylester] | 6.2 | 0.05 | 1 | 0.08 |  |
| COc1cc2c(c(OC)c1OC)-c1ccc(SC)c(=O)cc1[C@@H](NC(=O)c1cccc(COC(=O)c3cccc(CO[N+](=O)[O-])c3)c1)CC2 [Example 33] | 3.8 | 2.9 | 6.6 | 1 |  |
| COc1cc2c(c(OC)c1OC)-c1ccc(SC)c(=O)cc1[C@@H](NC(=O)c1cccc(CON=O)c1)CC2 [Example 36, 3-nitrosooxymethyl-N-[(7S)-1,2,3-trimethoxy-10-methylsulfanyl-9-oxo-5,6,7,9-tetrahydro-benzo[a]heptalen-7-yl]-benzamide] | 2.9 | 0.1 | 1.1 | 0.7 |  |
| COc1cc2c(c(OC)c1OC)-c1ccc(SC)c(=O)cc1[C@@H](NC(=O)c1cccc(CSN=O)c1)CC2 [Example 38, 3-nitrosothiomethyl-N-[(7S)-1,2,3-trimethoxy-10-methylsulfanyl-9-oxo-5,6,7,9-tetrahydro-benzo[a]heptalen-7-yl]-benzamide] | 2.4 | 3.3 | 4.1 | 3 |  |

Reference: patent US20070179143A1 (priority 2003, published 2007)
